The conditions of series [1]: high concentrations; cited from earlier work.
Series [2] concerns human patients suffering from secondary Meniere's disease (activated cervical sympathetic nervous system, mild Eustachian tube dysfunction). The series can be described thus: Clinical treatment of secondary Meniere's disease patients with oral betahistine, electrocochleography (ECochG) SP/AP amplitude ratio and symptoms. It counts as in vivo. The protocol: Patients, aged 19-70 years, have undergone baseline testing to determine SP/AP amplitude ratio using ECochG in Meniere's disease patients before the start of study treatment. The effect on SP/AP amplitude ratio was evaluated after a predetermined period of treatment with betahistine or a pharmaceutically acceptable salt.
Patients were seated in a swivel chair and the chair rotated while the patient's head was stabilized. Effect of rotational movement was observed and pupil enlargement a determinant of secondary Meniere's disease.
Dose levels included 16 mg of betahistine three time daily for predetermined period. 8 mg dose twice daily thereafter for a second predetermined period.
Patient studies comprise a range of dosing regimens including tablets, powders, sprays. In present studies unless otherwise stated each dose was administered in a tablet form in the morning taken after food.
Route of Administration can include oral and topical delivery. In the present studies unless otherwise stated route of administration was oral delivery.
Audiological evaluations were performed at specified intervals to evaluate the efficacy of Tests performed by physician or qualified audiologist. ECochG was performed at specified intervals by a physician specialist. Patient reported outcomes by self-administered questionnaire included the VSS (Yardley et al. 2004) and the TFI (Meikle et al. 2011). These were scored by study personnel.
Patient was started on oral dosage form of betahistine 16 mg three times daily (tds) for two weeks and reduced to 8 mg once daily thereafter for two months.

Series [3] concerns Eustachian tube function in rat model. The note with it: topical application; cited from earlier work.
Series [4] deals with humans with Eustachian tube dysfunction. The note with it: cited from earlier work.
Series [5] deals with eustachian tube function in "normal" volunteers. The following applies: cited from earlier work; for effect on eustachian tube function (tympanometry): "normal" volunteers, nasal application.
[6] abbreviates: patient, review at two months of oral betahistine.
Setting [7] is: patient, two months into oral betahistine treatment.

Where “and” joins values, the source holds several entries; their conditions need not be identical. Identical values can stand only once. Like-named read-outs stand apart in the source and are kept apart here.

In the case of `CNCCc1ccccn1` [betahistine], the toxicity result in series [1] is “nontoxic”. In addition, the “elevated SP/AP ratio indicating endolymphatic hydrops” value in series [2] (all cases of secondary MD treated) is on record as “normalized”. Further, the “Left Ear SP/AP Ratio, Average Ratio” value in series [2] (patient, after treatment (before treatment 28.6%)) is recorded as “Average Ratio of 16%”. The “Right Ear SP/AP Ratio” value in series [2] (patient, after treatment, single traces) was 9% and 18%. In addition, the repeat electrocochleograms result in series [2] (setting [6]) and in series [2] (setting [7]) was “returned to normal levels” in each case. Also, the symptoms at review entry in series [2] (setting [6]) and in series [2] (setting [7]) was “improved significantly” in each case. Moreover, in series [2] (patients suffering from secondary MD), the treatment outcomes is given as “invariably improved treatment outcomes”. Further, the Eustachian tube function entry is “facilitation of Eustachian tube function” in series [2] (patients with activated cervical sympathetic nervous system and mild Eustachian tube dysfunction); “improved” in series [3]. For the same compound, in series [4], the result versus placebo is “no greater result than a placebo”. Moreover, the “effect on eustachian tube function (tympanometry)” value is reported as “no effect” in series [5] (at best) and “Eustachian tube function became worse” in series [5] (higher dosages). For the same compound, the “mild Eustachian tube dysfunction” value in series [5] (volunteers found to have mild Eustachian tube dysfunction) was “not improved”.
